# Test results published in patent US20240217947A1, “Morpholinylquinazoline Compound, Pharmaceutical compositions thereof and Use Thereof” (SHANGHAI YINGLI PHARMACEUTICAL CO., LTD, priority 2022, published 2024).
# What was measured:
# Type in all cases: biochemical
# [1] = target: T1, HDAC10 (Homo sapiens, UniProt Q969S8); assay: HDAC10 enzyme activity inhibition IC50 evaluation experiment; details: HDAC10 10 nM, acetylated peptide 4 μM, 240 min, fluorescence
# T1 sequence (Q969S8 1-669): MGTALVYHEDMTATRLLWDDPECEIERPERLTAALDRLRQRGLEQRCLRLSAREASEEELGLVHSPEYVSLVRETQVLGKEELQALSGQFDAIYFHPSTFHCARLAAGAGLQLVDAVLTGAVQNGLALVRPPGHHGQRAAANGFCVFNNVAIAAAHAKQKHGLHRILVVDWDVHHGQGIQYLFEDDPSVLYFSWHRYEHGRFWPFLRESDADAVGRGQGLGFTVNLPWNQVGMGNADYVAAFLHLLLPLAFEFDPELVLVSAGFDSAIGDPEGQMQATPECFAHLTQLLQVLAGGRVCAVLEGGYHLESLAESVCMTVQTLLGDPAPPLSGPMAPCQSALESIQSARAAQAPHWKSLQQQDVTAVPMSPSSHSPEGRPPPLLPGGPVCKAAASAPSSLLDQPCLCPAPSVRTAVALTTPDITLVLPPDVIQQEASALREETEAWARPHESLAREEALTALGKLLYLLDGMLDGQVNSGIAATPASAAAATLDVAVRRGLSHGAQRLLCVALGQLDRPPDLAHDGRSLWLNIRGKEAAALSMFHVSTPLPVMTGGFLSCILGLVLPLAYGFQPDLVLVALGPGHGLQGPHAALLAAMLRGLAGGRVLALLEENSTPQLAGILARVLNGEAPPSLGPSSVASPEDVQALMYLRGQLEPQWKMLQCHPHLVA
# Experimental: (§1) Effect Example 3 HDAC8, HDAC10 enzyme activity inhibition IC50 evaluation experiment
# (§2) Prepare buffer solution (HDAC8: 50 mM Tris 8.0, 2.7 mM KCl, 137 mM NaCl, 1 mM MgCl2, 1 mg/mL BSA; HDAC10: 50 mM Tris 7.5, 0.01% Tween-20, 50 mM NaCl, 0.05 mg/mL BSA) according to the kit instructions, prepared Enzyme solution, substrate solution (acetylated peptide) by using buffer. The test compound samples were dissolved in DMSO and was added to the screening system at a certain starting concentration such as 10 μM, 3-fold dilution, while setting up the DMSO control and the no-enzyme control. The enzyme reaction system includes: buffer, enzyme [final concentration: HDAC8=10 nM, HDAC10=10 nM], substrate (acetylated peptide) [final concentration: Peptide(HDAC8)=20 μM, Peptide(HDAC10)=4 μM], etc. The enzymes and compounds were reacted at room temperature for 15 minutes. After adding the substrate peptide the reaction system was reacted at room temperature for 240 min. Trypsin solution was added [final concentration: Trypsin=50p M] and incubation continued for 120 min. The fluorescence signal data (excitation wavelength 355 nM/emission wavelength 460 nm) was read with Envision instrument. Calculate the inhibition rate at this concentration based on the relative fluorescence units (RFU). The IC50 value was obtained by fitting a curve using the formula Y=Bottom+(Top-Bottom)/(1+(IC50/X)^HillSlope).
# [2] = target: PI3Kδ (Homo sapiens, UniProt O00329); assay: PI3Kδ enzyme activity inhibition IC50 evaluation assay (ADP-Glo Kinase Assay); details: ATP 25 μM, PIP2 50 μg/mL, 1 hour room temperature, read-out: PI3K-δ IC50
# Experimental: (§3) Effec Example 1 IC50 evaluation assay for PI3Kα, PI3Kδ, PI3Kβ and PI3Kγ enzyme activity inhibition
# (§4) The experiment was performed using the ADP-Glo Kinase Assay kit, following the instructions. The following buffer solutions were prepared: 50 mM HEPES, pH 7.5, 3 mM MgCl2, 1 mM EGTA, 100 mM NaCl, 0.03% CHAPS, 2 mM DTT. The test compound samples were dissolved in DMSO and added to the screening system at a certain starting concentration such as 10 μM, 3-fold dilution, while setting up both DMSO control and no kinase control. The optimal concentrations of PI3Kα, PI3Kδ, PI3Kβ and PI3Kγ enzymes, substrate (PIP2) and ATP were prepared in buffer. The enzyme reaction system included: buffer, ATP 25 μM, kinase substrate (PIP2, 50 μg/mL), kinases [PI3Kα (0.15 μg/mL), PI3Kδ (1.2 μg/mL), PI3Kβ (0.3 μg/mL) and PI3Kγ (2.5 μg/mL)], etc. The reaction system was reacted at room temperature for 1 hour. The reaction was terminated by adding a termination reagent (ADP-Glo reagent, 5 μL), and the ADP content in the system was detected using a detection reagent (Kinase Detection Reagent, 10 μL). Signal data were collected using the Envision instrument. Calculate the percentage of (%) inhibition according to the following formula: % inhibition=(DMSO control signal value−sample signal value)/(DMSO control signal value−no-kinase control signal value). The IC50 value was obtained by fitting the curve using the formula Y=Bottom+(Top-Bottom)/(1+(IC50/X)^HillSlope).
# [3] = target: PI3Kγ (Homo sapiens, UniProt P48736); assay: PI3Kγ enzyme activity inhibition IC50 evaluation assay (ADP-Glo Kinase Assay); details: ATP 25 μM, PIP2 50 μg/mL, 1 hour room temperature, read-out: PI3K-γ IC50
# Experimental: as §3, §4
# [4] = target: PI3Kβ (Homo sapiens, UniProt P42338); assay: PI3Kβ enzyme activity inhibition IC50 evaluation assay (ADP-Glo Kinase Assay); details: ATP 25 μM, PIP2 50 μg/mL, 1 hour room temperature, read-out: PI3K-β IC50
# Experimental: as §3, §4
# [5] = target: T2, HDAC8 (Homo sapiens, UniProt Q9BY41); assay: HDAC8 enzyme activity inhibition IC50 evaluation experiment; details: HDAC8 10 nM, acetylated peptide 20 μM, 240 min, fluorescence
# T2 sequence (Q9BY41 1-377): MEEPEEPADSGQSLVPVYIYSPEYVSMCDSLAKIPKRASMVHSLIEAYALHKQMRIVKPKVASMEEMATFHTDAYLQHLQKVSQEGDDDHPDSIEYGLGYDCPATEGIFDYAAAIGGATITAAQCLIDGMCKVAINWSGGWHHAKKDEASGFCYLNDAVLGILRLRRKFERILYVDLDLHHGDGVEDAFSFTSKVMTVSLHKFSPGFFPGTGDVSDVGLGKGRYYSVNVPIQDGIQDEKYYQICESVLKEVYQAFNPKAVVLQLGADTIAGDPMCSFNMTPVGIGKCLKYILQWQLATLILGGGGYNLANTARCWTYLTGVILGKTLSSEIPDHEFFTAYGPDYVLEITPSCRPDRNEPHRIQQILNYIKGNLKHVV
# Experimental: as §1, §2
# PI3Kδ, sequence (O00329 whole entry, species assumed): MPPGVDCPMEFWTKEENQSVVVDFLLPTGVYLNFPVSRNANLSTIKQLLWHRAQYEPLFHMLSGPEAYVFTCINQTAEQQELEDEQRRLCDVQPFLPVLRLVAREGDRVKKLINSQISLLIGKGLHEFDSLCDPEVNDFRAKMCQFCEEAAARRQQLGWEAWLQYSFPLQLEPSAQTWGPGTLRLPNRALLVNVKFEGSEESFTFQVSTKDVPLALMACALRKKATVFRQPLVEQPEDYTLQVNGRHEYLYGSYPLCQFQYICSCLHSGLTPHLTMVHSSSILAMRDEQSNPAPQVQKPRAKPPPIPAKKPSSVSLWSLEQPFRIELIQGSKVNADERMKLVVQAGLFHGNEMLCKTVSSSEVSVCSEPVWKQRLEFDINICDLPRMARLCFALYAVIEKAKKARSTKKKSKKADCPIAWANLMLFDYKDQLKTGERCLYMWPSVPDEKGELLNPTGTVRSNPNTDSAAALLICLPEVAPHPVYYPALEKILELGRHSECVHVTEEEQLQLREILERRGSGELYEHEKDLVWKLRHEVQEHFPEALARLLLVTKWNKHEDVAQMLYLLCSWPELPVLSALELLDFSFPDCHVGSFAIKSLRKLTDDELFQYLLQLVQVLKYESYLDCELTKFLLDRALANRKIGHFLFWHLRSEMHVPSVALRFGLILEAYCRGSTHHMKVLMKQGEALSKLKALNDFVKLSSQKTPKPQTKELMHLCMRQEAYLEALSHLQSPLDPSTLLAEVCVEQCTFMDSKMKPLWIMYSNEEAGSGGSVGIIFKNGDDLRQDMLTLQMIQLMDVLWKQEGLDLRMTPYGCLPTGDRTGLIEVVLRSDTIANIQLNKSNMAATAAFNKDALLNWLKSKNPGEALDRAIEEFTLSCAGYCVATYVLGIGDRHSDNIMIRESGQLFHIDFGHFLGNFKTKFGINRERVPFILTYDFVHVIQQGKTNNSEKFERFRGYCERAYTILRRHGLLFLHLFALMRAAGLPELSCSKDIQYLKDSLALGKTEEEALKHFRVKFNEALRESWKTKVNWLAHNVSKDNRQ
# PI3Kδ, sequence (P27986 whole entry partner, species assumed): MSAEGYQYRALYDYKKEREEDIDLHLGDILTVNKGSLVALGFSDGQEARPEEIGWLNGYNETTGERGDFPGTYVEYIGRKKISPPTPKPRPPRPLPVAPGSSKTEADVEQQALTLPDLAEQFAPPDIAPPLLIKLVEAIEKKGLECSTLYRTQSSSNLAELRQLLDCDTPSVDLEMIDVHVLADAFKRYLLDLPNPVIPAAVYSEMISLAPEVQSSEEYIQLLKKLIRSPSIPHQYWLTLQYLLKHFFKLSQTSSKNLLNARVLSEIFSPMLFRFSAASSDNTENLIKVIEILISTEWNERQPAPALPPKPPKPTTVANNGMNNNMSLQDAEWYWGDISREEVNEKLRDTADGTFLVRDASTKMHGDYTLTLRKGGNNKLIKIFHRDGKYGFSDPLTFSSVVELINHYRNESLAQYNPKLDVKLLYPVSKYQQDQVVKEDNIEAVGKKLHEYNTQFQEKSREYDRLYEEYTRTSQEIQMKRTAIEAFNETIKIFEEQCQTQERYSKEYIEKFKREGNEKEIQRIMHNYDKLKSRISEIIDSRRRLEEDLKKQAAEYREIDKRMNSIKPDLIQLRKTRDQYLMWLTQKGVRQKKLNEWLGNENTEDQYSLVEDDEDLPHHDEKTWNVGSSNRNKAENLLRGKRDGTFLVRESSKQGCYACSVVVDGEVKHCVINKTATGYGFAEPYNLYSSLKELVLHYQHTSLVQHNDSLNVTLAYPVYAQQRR
# PI3Kγ, sequence (P48736 whole entry, species assumed): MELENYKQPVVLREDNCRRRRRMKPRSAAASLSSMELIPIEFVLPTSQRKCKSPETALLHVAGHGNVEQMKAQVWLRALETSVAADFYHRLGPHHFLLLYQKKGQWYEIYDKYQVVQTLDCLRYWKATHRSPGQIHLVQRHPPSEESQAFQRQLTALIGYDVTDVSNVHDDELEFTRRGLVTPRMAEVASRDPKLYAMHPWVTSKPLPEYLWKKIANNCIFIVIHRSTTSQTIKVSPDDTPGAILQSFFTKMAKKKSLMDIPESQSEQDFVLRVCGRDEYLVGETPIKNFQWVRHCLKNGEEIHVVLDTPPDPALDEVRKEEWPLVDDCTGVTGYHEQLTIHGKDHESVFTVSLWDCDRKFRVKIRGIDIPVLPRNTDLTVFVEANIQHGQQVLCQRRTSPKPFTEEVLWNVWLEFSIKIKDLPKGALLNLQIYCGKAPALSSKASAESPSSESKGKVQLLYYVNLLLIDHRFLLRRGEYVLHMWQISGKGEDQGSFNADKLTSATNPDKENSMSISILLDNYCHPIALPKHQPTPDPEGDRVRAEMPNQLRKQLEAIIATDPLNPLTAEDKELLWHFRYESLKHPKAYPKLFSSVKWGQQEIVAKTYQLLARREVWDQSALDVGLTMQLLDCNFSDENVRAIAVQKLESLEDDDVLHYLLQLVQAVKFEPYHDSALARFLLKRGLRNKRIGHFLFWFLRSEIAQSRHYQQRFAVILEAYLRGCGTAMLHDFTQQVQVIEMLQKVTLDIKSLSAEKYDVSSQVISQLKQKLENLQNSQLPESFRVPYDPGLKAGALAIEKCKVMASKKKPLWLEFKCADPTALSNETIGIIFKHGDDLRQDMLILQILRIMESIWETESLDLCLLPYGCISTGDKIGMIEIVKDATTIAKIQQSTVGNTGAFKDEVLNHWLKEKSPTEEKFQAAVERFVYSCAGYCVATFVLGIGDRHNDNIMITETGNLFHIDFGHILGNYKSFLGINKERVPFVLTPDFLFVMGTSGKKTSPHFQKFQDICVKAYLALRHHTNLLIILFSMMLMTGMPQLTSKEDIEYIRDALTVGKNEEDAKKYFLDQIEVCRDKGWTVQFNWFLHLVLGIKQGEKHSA
# PI3Kβ, sequence (P42338 whole entry, species assumed): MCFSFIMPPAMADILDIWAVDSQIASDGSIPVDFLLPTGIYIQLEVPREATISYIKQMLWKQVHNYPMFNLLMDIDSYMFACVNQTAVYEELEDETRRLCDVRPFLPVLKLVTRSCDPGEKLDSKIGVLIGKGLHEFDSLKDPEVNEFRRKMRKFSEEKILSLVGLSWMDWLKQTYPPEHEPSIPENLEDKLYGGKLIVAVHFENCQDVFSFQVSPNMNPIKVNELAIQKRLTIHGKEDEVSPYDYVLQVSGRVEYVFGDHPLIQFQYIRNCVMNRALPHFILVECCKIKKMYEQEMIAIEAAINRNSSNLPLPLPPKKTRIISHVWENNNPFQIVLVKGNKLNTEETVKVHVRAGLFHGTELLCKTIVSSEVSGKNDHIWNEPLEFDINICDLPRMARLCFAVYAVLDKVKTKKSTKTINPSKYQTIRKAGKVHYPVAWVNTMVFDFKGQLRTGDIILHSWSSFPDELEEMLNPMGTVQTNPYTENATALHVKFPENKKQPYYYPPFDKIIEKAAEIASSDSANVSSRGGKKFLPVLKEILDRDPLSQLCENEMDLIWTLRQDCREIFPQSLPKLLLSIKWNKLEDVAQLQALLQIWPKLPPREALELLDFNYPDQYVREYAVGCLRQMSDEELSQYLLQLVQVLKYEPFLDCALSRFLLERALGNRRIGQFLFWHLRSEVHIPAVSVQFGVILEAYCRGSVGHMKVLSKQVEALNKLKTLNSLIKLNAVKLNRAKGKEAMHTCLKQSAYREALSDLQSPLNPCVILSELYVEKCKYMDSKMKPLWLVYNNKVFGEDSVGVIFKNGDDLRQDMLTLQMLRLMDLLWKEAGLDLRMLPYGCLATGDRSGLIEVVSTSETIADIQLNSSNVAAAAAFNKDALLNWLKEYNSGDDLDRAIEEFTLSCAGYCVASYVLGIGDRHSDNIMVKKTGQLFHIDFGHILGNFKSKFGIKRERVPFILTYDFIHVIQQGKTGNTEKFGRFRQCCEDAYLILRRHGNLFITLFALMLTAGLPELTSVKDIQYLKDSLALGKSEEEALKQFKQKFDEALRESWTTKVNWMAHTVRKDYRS
# PI3Kβ, sequence (P27986 whole entry partner, species assumed): as the sequence (P27986 whole entry partner, species assumed) above
IC50 [1] [nM],IC50 [2] [nM],IC50 [3] [nM],IC50 [4] [nM],IC50 [5] [nM],SMILES
100 to 1000,≤ 10,1000 to 10000,100 to 1000,–,COc1ncc(-c2nc(N3CCOCC3)nc3c(CN4CCN(c5ncc(C(=O)NO)cn5)CC4)cc(F)cc23)cc1NS(C)(=O)=O [Compound 7]
100 to 1000,10 to 100,–,–,–,COc1ncc(-c2nc(N3CCOCC3)nc3c(OCCCCCCC(=O)NO)cc(F)cc23)cc1NS(C)(=O)=O [Compound 9]
100 to 1000,10 to 100,1000 to 10000,1000 to 10000,100 to 1000,COc1ncc(-c2nc(N3CCOCC3)nc3c(OC4CCN(c5ncc(C(=O)NO)cc5F)CC4)cc(F)cc23)cc1NS(C)(=O)=O [Compound 30]
10 to 100,≤ 10,–,–,100 to 1000,COc1ncc(-c2nc(N3CCOCC3)nc3c(OC4CCN(c5ncc(C(=O)NO)cn5)CC4)cc(F)cc23)cc1NS(C)(=O)=O [Compound 39]
–,≤ 10,–,–,1000 to 10000,COc1ncc(-c2nc(N3CCOCC3)nc3c(OC4CCN(c5ccc(C(=O)NO)cn5)CC4)cc(F)cc23)cc1NS(C)(=O)=O [Compound 40]
